The target in assay [1] is T1, Axl (Homo sapiens, UniProt P30530).
T1 sequence (P30530 26-894): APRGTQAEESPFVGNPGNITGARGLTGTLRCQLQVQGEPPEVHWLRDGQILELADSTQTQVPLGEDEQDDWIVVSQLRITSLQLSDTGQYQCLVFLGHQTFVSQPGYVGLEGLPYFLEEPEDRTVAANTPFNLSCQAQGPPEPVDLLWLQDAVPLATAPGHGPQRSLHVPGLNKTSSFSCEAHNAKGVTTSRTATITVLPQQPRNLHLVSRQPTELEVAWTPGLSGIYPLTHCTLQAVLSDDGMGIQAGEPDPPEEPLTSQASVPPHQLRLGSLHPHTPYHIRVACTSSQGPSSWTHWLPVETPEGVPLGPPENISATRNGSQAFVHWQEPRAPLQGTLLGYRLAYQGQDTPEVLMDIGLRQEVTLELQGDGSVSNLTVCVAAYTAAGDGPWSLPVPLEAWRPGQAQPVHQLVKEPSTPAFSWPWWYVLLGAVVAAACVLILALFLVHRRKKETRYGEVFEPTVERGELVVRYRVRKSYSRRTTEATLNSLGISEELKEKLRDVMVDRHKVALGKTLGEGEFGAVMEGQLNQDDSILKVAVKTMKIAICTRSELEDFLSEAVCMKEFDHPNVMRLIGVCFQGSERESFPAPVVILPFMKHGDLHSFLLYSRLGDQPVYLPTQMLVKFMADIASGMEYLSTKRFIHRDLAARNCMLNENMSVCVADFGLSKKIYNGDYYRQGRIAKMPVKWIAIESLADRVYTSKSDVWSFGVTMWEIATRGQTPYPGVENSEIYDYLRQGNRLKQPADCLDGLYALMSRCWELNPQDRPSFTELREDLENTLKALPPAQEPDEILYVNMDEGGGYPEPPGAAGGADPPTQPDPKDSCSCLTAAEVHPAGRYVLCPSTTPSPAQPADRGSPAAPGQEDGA
The experiment in a line: HTRF KinEASE-TK biochemical potency assay, AXL. More on the design: purchased Invitrogen. The settings on record: 5 nM AXL, 700 μM ATP, 800 nM TK Substrate-biotin. The essentials: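 Final conditions: 5 nM AXL, 1 nM TYRO3 or MER, 50 mM HEPES pH 7.4, 10 mM MgCl2, 0.01% BSA, 1 mM DTT, 700 μM ATP. Reaction ran 2 h at RT after 1 h preincubation with compound; HTRF signal read at 665/620 nm.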
(In TR-FRET formats the signal depends on donor and acceptor labels being close together.)

Assay [2] addresses T1, Axl. The assay is described as follows: Axl NanoBRET intracellular kinase assay (intracellular binding, Cell Binding). On the set-up: host or cells: HEK-293. The settings on record: HEK-293 cells transfected with Axl-NanoLuc fusion vector; 0.35 μM K-5 NanoBRET tracer. Put shortly:
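In intact HEK-293 cells transiently expressing NanoLuc-tagged Axl, compounds compete with the K-5 tracer (0.35 μM, 2 h, 37 °C) after a 1 h preincubation. Readout is the 610/450 nm emission ratio.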

Molecules are shown by their SMILES.

For the molecule `C[C@@H]1CCCN1C1CCc2ccc(-c3cnc4[nH]nc(-c5ccc(S(C)(=O)=O)cc5)c4c3)cc2CC1` (stereo partly drawn) [Example 38, 5-(7-((R)-2-Methylpyrrolidin-1-yl)-6,7,8,9-tetrahydro-5H-benzo[7]annulen-2-yl)-3-(4-(methylsulfonyl)phenyl)-1H-pyrazolo[3,4-b]pyridine], the IC50 on Axl [1] and at Axl [2] was less than 100 nM throughout.

As to `CC(C)(O)c1ccc(-c2n[nH]c3ncc(-c4ccc5c(c4)CCC4(CCCN4)CC5)cc23)cc1Cl` (stereo not drawn) [Example 96, 2-[2-Chloro-4-(5-{5,6,8,9-tetrahydrospiro[benzo[7]annulene-7,2′-pyrrolidin]-3-yl}-1H-pyrazolo[3,4-b]pyridin-3-yl)phenyl]propan-2-ol], the IC50 – broadly, the midpoint of a concentration-inhibition curve – against Axl [1] was less than 100 nM; on Axl [2], greater than 1000 nM.

With `C[C@@H]1CCCN1C1(C)CCc2ccc(-c3cnc4[nH]nc(-c5ccc(C(=O)N[C@H]6CCOC6)cc5)c4c3)cc2CC1` (stereo partly drawn) [Example 117, 4-(5-{7-Methyl-7-[(2R)-2-methylpyrrolidin-1-yl]-6,7,8,9-tetrahydro-5H-benzo[7]annulen-2-yl}-1H-pyrazolo[3,4-b]pyridin-3-yl)-N-[(3S)-oxolan-3-yl]benzamide], the IC50 at Axl [1] and on Axl [2] was less than 100 nM throughout.

The values are drawn from patent US20240246967A1, “AXL COMPOUNDS” (ARCUS BIOSCIENCES, INC., priority 2021, published 2024).
